In patent publication US20230330093A1, “APPLICATION OF NITROGEN-CONTAINING SATURATED HETEROCYCLIC COMPOUND” (SHANGHAI PHARMACEUTICALS HOLDING CO., LTD., priority 2020, published 2023):

System: cynomolgus monkeys
Experiment: 4-week safety study: hematology and coagulation
Format: in vivo
Method: […] (1) Hematological and coagulation index examination were performed using a Bayer ADVIA2120 (Germany) and a Sysmex CA-1500 (Japan). (2) The serum biochemical examination was assessed using a HITACHI 7080 automated analyzer (Japan) and an Easylyte PLUS electrolyte analyzer (MEDICA, America). (3) The 24-h pooled urine of each animal was collected by a tray under each cage. Urinalysis was carried out using Uritest-300 (China). (4) The 24-h pooled faeces of each monkey were collected by a tray under each cage. Fecal occult blood was detected. (5) ACCESS 2 Chemiluminescence immunoassay was used for myocardial troponin (TropI, non-GLP) test.

[1] = all treated females and high-dose males

In the case of COC(=O)NCCCn1nc([C@@H](C)N(C(=O)[C@H]2CNCCO2)C2CC2)c2ccc(C)nc21 [compound of Formula I], the APTT (Female, 20 mg/kg, d0) was 16.7 ± 0.8 s, the Fbg (Female, 20 mg/kg, d0) was 2.0 ± 0.3 g/L and the LYMPH (Female, 20 mg/kg, d0) was 51.3 ± 18.0%. The NEUT (Female, 20 mg/kg, d0) was 42.5 ± 18.8%, the WBC (Female, 20 mg/kg, d0) was 15.3 ± 3.6 ×10^9 · L^−1 and the APTT (Female, 20 mg/kg, d14) was 15.9 ± 1.0 s. It also gave a Fbg (Female, 20 mg/kg, d14) of 2.9 ± 0.9 g/L, an LYMPH (Female, 20 mg/kg, d14) of 40.8 ± 11.3% and an NEUT (Female, 20 mg/kg, d14) of 52.5 ± 10.4%. The WBC (Female, 20 mg/kg, d14) was 16.0 ± 3.9 ×10^9 · L^−1, the APTT (Female, 20 mg/kg, d26) was 18.3 ± 1.4 s and the Fbg (Female, 20 mg/kg, d26) was 2.8 ± 0.9 g/L. The LYMPH (Female, 20 mg/kg, d26) was 33.1 ± 12.8 %, the NEUT (Female, 20 mg/kg, d26) was 61.4 ± 13.2 % and the WBC (Female, 20 mg/kg, d26) was 19.1 ± 4.0 ×10^9 · L^−1. It also gave an APTT (Female, 20 mg/kg, d 56) of 16.4 ± 1.1 s, a Fbg (Female, 20 mg/kg, d 56) of 1.7 ± 0.5 g/L and an LYMPH (Female, 20 mg/kg, d 56) of 53.1 ± 7.4%. For the same compound, the NEUT (Female, 20 mg/kg, d 56) was 38.1 ± 7.1%, the WBC (Female, 20 mg/kg, d 56) was 12.4 ± 1.6 ×10^9 · L^−1 and the APTT (Female, 100 mg/kg, d0) was 15.0 ± 1.6 s. It also gave a Fbg (Female, 100 mg/kg, d0) of 1.9 ± 0.4 g/L, an LYMPH (Female, 100 mg/kg, d0) of 44.0 ± 16.5% and an NEUT (Female, 100 mg/kg, d0) of 50.5 ± 17.3%. The WBC (Female, 100 mg/kg, d0) was 10.9 ± 2.9 ×10^9 · L^−1, the APTT (Female, 100 mg/kg, d14) was 14.5 ± 0.9 s and the Fbg (Female, 100 mg/kg, d14) was 2.5 ± 0.4 g/L. For the same compound, the LYMPH (Female, 100 mg/kg, d14) was 33.2 ± 4.4 %, the NEUT (Female, 100 mg/kg, d14) was 59.5 ± 5.3 % and the WBC (Female, 100 mg/kg, d14) was 14.0 ± 4.0 ×10^9 · L^−1. The APTT (Female, 100 mg/kg, d26) was 19.7 ± 2.2 s, the Fbg (Female, 100 mg/kg, d26) was 3.5 ± 0.8 g/L and the LYMPH (Female, 100 mg/kg, d26) was 30.0 ± 6.8 %. The NEUT (Female, 100 mg/kg, d26) was 63.2 ± 6.4 %, the WBC (Female, 100 mg/kg, d26) was 15.9 ± 6.2 ×10^9 · L^−1 and the APTT (Female, 100 mg/kg, d 56) was 15.8 ± 1.5 s. It also gave a Fbg (Female, 100 mg/kg, d 56) of 2.1 ± 0.3 g/L, an LYMPH (Female, 100 mg/kg, d 56) of 48.7 ± 0.6% and an NEUT (Female, 100 mg/kg, d 56) of 45.2 ± 2.3%. For the same compound, the WBC (Female, 100 mg/kg, d 56) was 9.9 ± 1.0 ×10^9 · L^−1, the APTT (Female, 450 mg/kg, d0) was 16.9 ± 1.4 s and the Fbg (Female, 450 mg/kg, d0) was 1.8 ± 0.3 g/L. For the same compound, the LYMPH (Female, 450 mg/kg, d0) was 51.8 ± 12.2%, the NEUT (Female, 450 mg/kg, d0) was 43.3 ± 12.3% and the WBC (Female, 450 mg/kg, d0) was 14.4 ± 1.7 ×10^9 · L^−1. For the same compound, the APTT (Female, 450 mg/kg, d14) was 18.6 ± 0.8 s, the Fbg (Female, 450 mg/kg, d14) was 3.9 ± 0.8 g/L and the LYMPH (Female, 450 mg/kg, d14) was 30.1 ± 14.3 %. For the same compound, the NEUT (Female, 450 mg/kg, d14) was 63.5 ± 15.2 %, the WBC (Female, 450 mg/kg, d14) was 16.9 ± 7.8 ×10^9 · L^−1 and the APTT (Female, 450 mg/kg, d26) was 20.1 ± 3.1 s. The Fbg (Female, 450 mg/kg, d26) was 4.2 ± 0.7 g/L, the LYMPH (Female, 450 mg/kg, d26) was 26.9 ± 8.9 % and the NEUT (Female, 450 mg/kg, d26) was 67.5 ± 9.2 %. The WBC (Female, 450 mg/kg, d26) was 18.1 ± 3.7 ×10^9 · L^−1, the APTT (Female, 450 mg/kg, d 56) was 18.0 ± 3.5 s and the Fbg (Female, 450 mg/kg, d 56) was 1.4 ± 0.0 g/L. For the same compound, the LYMPH (Female, 450 mg/kg, d 56) was 53.3 ± 0.3%, the NEUT (Female, 450 mg/kg, d 56) was 42.3 ± 0.6% and the WBC (Female, 450 mg/kg, d 56) was 14.0 ± 4.9 ×10^9 · L^−1. The APTT (Male, 20 mg/kg, d0) was 16.4 ± 1.1 s, the Fbg (Male, 20 mg/kg, d0) was 2.1 ± 0.6 g/L and the LYMPH (Male, 20 mg/kg, d0) was 55.3 ± 14.6%. The NEUT (Male, 20 mg/kg, d0) was 39.9 ± 14.6%, the WBC (Male, 20 mg/kg, d0) was 13.4 ± 2.5 ×10^9 · L^−1 and the APTT (Male, 20 mg/kg, d14) was 17.8 ± 2.7 s. For the same compound, the Fbg (Male, 20 mg/kg, d14) was 3.2 ± 0.8 g/L, the LYMPH (Male, 20 mg/kg, d14) was 51.1 ± 19.6% and the NEUT (Male, 20 mg/kg, d14) was 43.1 ± 20.4%. The WBC (Male, 20 mg/kg, d14) was 17.7 ± 9.3 ×10^9 · L^−1, the APTT (Male, 20 mg/kg, d26) was 19.5 ± 2.4 s and the Fbg (Male, 20 mg/kg, d26) was 2.2 ± 0.4 g/L. The LYMPH (Male, 20 mg/kg, d26) was 59.5 ± 11.9%, the NEUT (Male, 20 mg/kg, d26) was 35.1 ± 12.4% and the WBC (Male, 20 mg/kg, d26) was 13.8 ± 6.5 ×10^9 · L^−1. For the same compound, the APTT (Male, 20 mg/kg, d 56) was 21.3 ± 4.0 s, the Fbg (Male, 20 mg/kg, d 56) was 3.1 ± 1.4 g/L and the LYMPH (Male, 20 mg/kg, d 56) was 53.3 ± 14.3%. The NEUT (Male, 20 mg/kg, d 56) was 38.5 ± 12.6%, the WBC (Male, 20 mg/kg, d 56) was 20.1 ± 4.2 ×10^9 · L^−1 and the APTT (Male, 100 mg/kg, d0) was 16.6 ± 1.8 s. The Fbg (Male, 100 mg/kg, d0) was 2.2 ± 0.3 g/L, the LYMPH (Male, 100 mg/kg, d0) was 61.5 ± 16.2% and the NEUT (Male, 100 mg/kg, d0) was 32.6 ± 18.2%. For the same compound, the WBC (Male, 100 mg/kg, d0) was 12.6 ± 2.3 ×10^9 · L^−1, the APTT (Male, 100 mg/kg, d14) was 15.5 ± 0.5 s and the Fbg (Male, 100 mg/kg, d14) was 2.8 ± 0.7 g/L. For the same compound, the LYMPH (Male, 100 mg/kg, d14) was 48.0 ± 12.2%, the NEUT (Male, 100 mg/kg, d14) was 45.2 ± 12.2% and the WBC (Male, 100 mg/kg, d14) was 15.6 ± 6.6 ×10^9 · L^−1. The APTT (Male, 100 mg/kg, d26) was 22.5 ± 2.5 s, the Fbg (Male, 100 mg/kg, d26) was 4.1 ± 1.2 g/L and the LYMPH (Male, 100 mg/kg, d26) was 32.1 ± 9.4%. For the same compound, the NEUT (Male, 100 mg/kg, d26) was 60.8 ± 10.5%, the WBC (Male, 100 mg/kg, d26) was 20.3 ± 2.9 ×10^9 · L^−1 and the APTT (Male, 100 mg/kg, d 56) was 17.7 ± 1.0 s. The Fbg (Male, 100 mg/kg, d 56) was 1.7 ± 0.3 g/L, the LYMPH (Male, 100 mg/kg, d 56) was 52.7 ± 9.0% and the NEUT (Male, 100 mg/kg, d 56) was 42.5 ± 11.2%. For the same compound, the WBC (Male, 100 mg/kg, d 56) was 14.1 ± 0.2 ×10^9 · L^−1, the APTT (Male, 450 mg/kg, d0) was 17.0 ± 2.1 s and the Fbg (Male, 450 mg/kg, d0) was 2.2 ± 0.7 g/L. The LYMPH (Male, 450 mg/kg, d0) was 48.6 ± 16.8%, the NEUT (Male, 450 mg/kg, d0) was 46.9 ± 17.3% and the WBC (Male, 450 mg/kg, d0) was 12.0 ± 3.8 ×10^9 · L^−1. For the same compound, the APTT (Male, 450 mg/kg, d14) was 16.1 ± 0.8 s, the Fbg (Male, 450 mg/kg, d14) was 3.1 ± 1.0 g/L and the LYMPH (Male, 450 mg/kg, d14) was 35.6 ± 15.5%. The NEUT (Male, 450 mg/kg, d14) was 59.2 ± 16.0%, the WBC (Male, 450 mg/kg, d14) was 16.7 ± 6.4 ×10^9 · L^−1 and the APTT (Male, 450 mg/kg, d26) was 20.0 ± 3.3 s. For the same compound, the Fbg (Male, 450 mg/kg, d26) was 4.1 ± 0.6 g/L, the LYMPH (Male, 450 mg/kg, d26) was 26.5 ± 12.0 % and the NEUT (Male, 450 mg/kg, d26) was 68.6 ± 12.3 %. The WBC (Male, 450 mg/kg, d26) was 18.6 ± 5.9 ×10^9 · L^−1, the APTT (Male, 450 mg/kg, d 56) was 19.9 ± 0.3 s and the Fbg (Male, 450 mg/kg, d 56) was 1.8 ± 0.0 g/L. The LYMPH (Male, 450 mg/kg, d 56) was 59.8 ± 22.8%, the NEUT (Male, 450 mg/kg, d 56) was 36.7 ± 23.2% and the WBC (Male, 450 mg/kg, d 56) was 14.6 ± 0.8 ×10^9 · L^−1. The LYMPH % [1] was “decreased”, the NEUT % [1] was “Increased” and the APTT (high-dose females) was “increases”. For the same compound, the Fbg (mid- and high-dose animals) was “increases”.
